Reference: the RepoRT retention time repository (doi:10.1016/j.foodchem.2021.129757)

How the values were obtained:
Settings in all cases: stereoisomer not certain
[1] = RP, Agilent InfinityLab Poroshell 120 EC-C18, 100 × 3 mm, 2.7 µm, 25 °C, 0.4 mL/min, estimated dead time 1.1 min; A: water + 0.1% formic acid, pH 3; B: acetonitrile + 0.1% formic acid, pH 3; gradient (min/%B) 0/5 10/25 20/40 24/90 25/90 26/5 30/5
[2] = RP, 50 × 0.5 mm, 2.7 µm, 35 °C, 0.01 mL/min, estimated dead time 0.62 min; A: water + 0.1% formic acid, pH 3; B: acetonitrile + 0.1% formic acid, pH 3; gradient (min/%B) 0/5 12/95 14/95 16/5
[3] = RP, Phenomenex Luna Omega Polar C18, 100 × 2.1 mm, 1.6 µm, 40 °C, 0.5 mL/min, estimated dead time 0.44 min; A: water + 0.1% formic acid + 10 mM ammonium formate; B: acetonitrile; gradient (min/%B) 0/5 8/20 10/100 12/100 12.1/5 14/5
[4] = RP, Waters ACQUITY UPLC BEH Shield RP18, 150 × 2.1 mm, 1.7 µm, 40 °C, 0.4 mL/min, estimated dead time 0.83 min; A: water + 0.1% formic acid, pH 3; B: acetonitrile + 0.1% formic acid, pH 3; gradient (min/%B) 0/0 30/50 31/100 37/100 37.1/0
[5] = RP, 150 × 2.1 mm, 2.6 µm, 40 °C, 0.35 mL/min, estimated dead time 0.94 min; A: water + 0.1% formic acid, pH 3; B: acetonitrile + 0.1% formic acid, pH 3; gradient (min/%B) 0/0 1/5 7/45 8.5/80 10.5/80 11/5 12/5
[6] = RP, Phenomenex Luna Omega Polar C18, 100 × 2.1 mm, 1.6 µm, 40 °C, 0.5 mL/min, estimated dead time 0.44 min; A: water + 0.5% formic acid; B: acetonitrile + 0.5% formic acid; gradient (min/%B) 0/5 3/50 3.1/100 5/100 5.1/5 7/5
[7] = RP, Phenomenex Synergi Hydro-RP, 150 × 2 mm, 4 µm, 30 °C, 0.5 mL/min, estimated dead time 0.6 min; A: water + 0.1% formic acid, pH 3; B: acetonitrile + 0.1% formic acid, pH 3; gradient (min/%B) 0/5 1/5 35/45 40/100 45/100
[8] = RP, Phenomenex Synergi Hydro-RP, 250 × 2 mm, 4 µm, 25 °C, 0.2 mL/min, estimated dead time 2.5 min; A: water + 0.1% formic acid, pH 3; B: acetonitrile + 0.1% formic acid, pH 3; gradient (min/%B) 0/0.5 7/0.5 12/12.5 25/16.3 47/35 48/65 50/65 50.1/0.5
[9] = RP, 100 × 0.5 mm, 2.7 µm, 45 °C, 0.015 mL/min, estimated dead time 0.83 min; A: water + 0.9% formic acid; B: acetonitrile + 0.9% formic acid; gradient (min/%B) 0/1 0.5/1 4/95 4.5/1 5/1
[10] = RP, Phenomenex Luna C18, 150 × 4.6 mm, 3 µm, 25 °C, 0.5 mL/min, estimated dead time 3.2 min; A: water + 0.1% formic acid, pH 3; B: acetonitrile + 0.1% formic acid, pH 3; gradient (min/%B) 0/0 30/30 35/40 50/80 52/80 60/0 65/0
[11] = RP, Waters ACQUITY UPLC BEH Shield RP18, 100 × 2.1 mm, 1.7 µm, 30 °C, 0.6 mL/min, estimated dead time 0.37 min; A: water + 0.1% formic acid, pH 3; B: acetonitrile + 0.1% formic acid, pH 3; gradient (min/%B) 0/0 2/0 7/10 22/95 22.1/0 26/0
[12] = RP, Waters ACQUITY UPLC BEH C18, 100 × 2.1 mm, 1.7 µm, 65 °C, 0.4 mL/min, estimated dead time 0.55 min; A: water + 0.1% formic acid, pH 3; B: 80% acetonitrile + 20% acetone + 0.1% formic acid, pH 3; gradient (min/%B) 0/0 5/100 5.5/0 6/0
[13] = RP, 150 × 2.1 mm, 2.6 µm, 40 °C, 0.35 mL/min, estimated dead time 0.94 min; A: water + 0.1% formic acid, pH 3; B: acetonitrile + 0.1% formic acid, pH 3; gradient (min/%B) 0/0 1/0 12.5/100 14/100 14.2/0 15/0
[14] = RP, Agilent ZORBAX Eclipse XDB-C18, 100 × 2.1 mm, 1.8 µm, 50 °C, 0.4 mL/min, estimated dead time 0.55 min; A: water + 0.1% formic acid, pH 3; B: methanol + 0.1% formic acid, pH 3; gradient (min/%B) 0/2 10/100 14.5/100 14.51/2 16.5/2
[15] = RP, Waters ACQUITY UPLC HSS T3, 100 × 2.1 mm, 1.8 µm, 30 °C, 0.4 mL/min, estimated dead time 0.55 min; A: water + 0.1% formic acid, pH 3; B: acetonitrile + 0.1% formic acid, pH 3; gradient (min/%B) 0/0 2/0 15/100 22/100 22.1/0 26/0
[16] = RP, Waters Atlantis T3, 100 × 2.1 mm, 3 µm, 40 °C, 0.3 mL/min, estimated dead time 0.73 min; A: water + 0.1% trifluoroacetic acid, pH 2; B: acetonitrile + 0.1% trifluoroacetic acid, pH 2; gradient (min/%B) 0/10 1/10 6/40 7/50 8/50 14/70 16/80 20/10 25/10
[17] = RP, Agilent ZORBAX RRHD Eclipse Plus C18, 50 × 2.1 mm, 1.8 µm, 30 °C, 0.4 mL/min, estimated dead time 0.28 min; A: water + 0.1% formic acid, pH 3; B: acetonitrile + 0.1% formic acid, pH 3; gradient (min/%B) 0/1 5/10 8/25 9.1/99 10/99 12/1
[18] = RP, Agilent ZORBAX RRHD Eclipse Plus C18, 50 × 2.1 mm, 1.8 µm, 30 °C, 0.4 mL/min, estimated dead time 0.28 min; A: water + 0.1% formic acid, pH 3; B: acetonitrile + 0.1% formic acid, pH 3; gradient (min/%B) 0/1 5/10 8/25 9.1/99 10/99 12/99

| LC retention time [1] [min] | LC retention time [2] [min] | LC retention time [3] [min] | LC retention time [4] [min] | LC retention time [5] [min] | LC retention time [6] [min] | LC retention time [7] [min] | LC retention time [8] [min] | LC retention time [9] [min] | LC retention time [10] [min] | LC retention time [11] [min] | LC retention time [12] [min] | LC retention time [13] [min] | LC retention time [14] [min] | LC retention time [15] [min] | LC retention time [16] [min] | LC retention time [17] [min] | LC retention time [18] [min] | Compound |
| --- | --- | --- | --- | --- | --- | --- | --- | --- | --- | --- | --- | --- | --- | --- | --- | --- | --- | --- |
| 6.13 | 2.53 | 3.36 | 5.41 | 4.34 | 1.15 | 11.9 | 20.4 | 2.71 | 14.7 | 7.43 | 1.76 | 4.61 | 3.26 | 8.37 | – | – | – | O=C(O)Cc1ccc(O)cc1 [4-Hydroxyphenylacetic acid] |
| 10.7 | 4.87 | 9.12 | 14.3 | 6.23 | 2.6 | 17.9 | – | 2.89 | 27.6 | 13.5 | – | 6.07 | 5.5 | 9.6 | 7.96 | – | – | O=c1cc(-c2ccc(O)cc2)oc2cc(OC3OC(CO)C(O)C(O)C3O)cc(O)c12 (centres undefined) [Apigenin 7-O-glucoside] |
| – | 8.2 | – | – | – | 2.42 | 37.9 | – | 4.04 | 50 | 17.5 | 3.19 | – | 9.33 | 13.9 | – | – | – | CC12CCc3occc3C1CCC13CC(CCC12)C(O)(CO)C3 (centres undefined) [Cafestol] |
| 22.9 | 7.99 | 10.1 | 13 | – | 3.84 | 37.7 | – | 3.75 | 48.7 | 18.2 | – | – | 8.13 | 13.6 | – | – | – | COc1cc(C=CC(=O)CC(=O)C=Cc2ccc(O)c(OC)c2)ccc1O [Curcumin] |
| 6.04 | 2.6 | 3.46 | 5.6 | – | 2.6 | 14.6 | 20.1 | 2.4 | 14.2 | 8.08 | 1.69 | – | 3.33 | 8.3 | – | 5.05 | 2.11 | O=C(O)CCc1ccc(O)c(O)c1 [Dihydrocaffeic acid] |
| 10.5 | 4.81 | 8.58 | 15.2 | – | 2.53 | 17.4 | – | 2.39 | 27.4 | 13.7 | – | – | 5.52 | 9.51 | – | 8.37 | 8.79 | O=C(O)C1OC(Oc2c(-c3ccc(O)cc3)oc3cc(O)cc(O)c3c2=O)C(O)C(O)C1O (centres undefined) [Kaempferol-3-O-glucuronide] |
| 7.93 | 3.41 | 5.01 | 6.46 | – | 2.19 | 11.7 | 26 | 2.32 | 19.9 | 10.4 | 2.09 | – | 4.09 | 9.17 | – | 6.75 | 6.26 | O=C(O)CCc1ccc(O)cc1 [Phloretic acid] |
| 9.7 | 4.38 | 8.12 | – | – | 2.41 | 16 | – | 2.53 | 24.4 | 13.1 | – | – | 4.3 | 9.38 | – | 8.05 | – | Oc1cc(O)c2c(c1)OC1(c3ccc(O)c(O)c3)Oc3cc(O)c4c(c3C2C1O)OC(c1ccc(O)c(O)c1)C(O)C4 (centres undefined) [Procyanidin A2] |
| 3.99 | 1.4 | 1.61 | 7.61 | – | 1.49 | – | – | 2.2 | 18.4 | – | – | – | 1.76 | 6.13 | – | 2.36 | 1.34 | O=S(=O)(O)Oc1c(O)cccc1O [Pyrogallol 2-O-sulfate] |
| 18.8 | 6.54 | 9.78 | 22.6 | – | 3.72 | – | – | 3.47 | 44.4 | 16 | – | – | 7.19 | 12.2 | – | – | – | O=c1oc2cc(O)ccc2c2ccccc12 [Urolithin B] |

| Compound | LC retention time [1] [min] | LC retention time [2] [min] | LC retention time [3] [min] | LC retention time [4] [min] | LC retention time [5] [min] | LC retention time [6] [min] | LC retention time [7] [min] | LC retention time [8] [min] | LC retention time [9] [min] | LC retention time [10] [min] | LC retention time [11] [min] | LC retention time [12] [min] | LC retention time [13] [min] | LC retention time [14] [min] | LC retention time [15] [min] | LC retention time [16] [min] | LC retention time [17] [min] | LC retention time [18] [min] |
| --- | --- | --- | --- | --- | --- | --- | --- | --- | --- | --- | --- | --- | --- | --- | --- | --- | --- | --- |
| O=c1ccc2c(O)c3ccoc3cc2o1 [Bergaptol] | 13.9 | 5.42 | 9.43 | 17.9 | – | 3.25 | 21.6 | – | 3.08 | 37.6 | 14.7 | – | – | 6.04 | 11 | – | – | – |
| COc1ccc(C(=O)O)cc1OC [Veratric acid] | 9.51 | 4.19 | 6.87 | – | – | – | – | 33 | 2.4 | 24.9 | 12 | – | – | 4.84 | 9.65 | – | – | – |
